{"source": "patent US20030158255A1", "about": "“Use of bismuth subgallate in prevention and/or reduction of skin deterioration” (priority 2002, published 2003)", "test_system": "keratinocyte cells", "assay": "Proliferation of keratinocyte (cell count)", "type": "cell-based", "conditions": "for effect on proliferation of keratinocyte: cell count after 2-12 days of cultivation, FIG. 1", "protocol": "The keratinocyte cells were respectively cultivated with the following groups of agents: (a) 0.7 μg/1 ml, 7 μg/ml, 70 μg/ml and 700 μg/ml of bismuth subgallate; (b) 0.1 μg/ml, 1 μg/ml, 10 μg/ml and […]; and (c) 0.7 μg/ml bismuth subgallate in combination with 0.1 μg/ml borneol, 7 μg/ml bismuth subgallate in combination with 1 μg/ml borneol, 70 μg/ml bismuth subgallate in combination with 10 μg/ml borneol and 700 μg/ml bismuth subgallate in combination with 100 μg/ml borneol. After the cells were cultivated after 2, 4, 6, 8, 10 and 12 days respectively, their count was noted to evaluate the proliferation of them.", "data": [{"compound": "CC1(C)C2CCC1(C)C(O)C2", "note": "(stereo not drawn) [borneol]", "values": [{"measurement": "effect on proliferation of keratinocyte", "result": "no significant effect"}]}, {"compound": "bismuth subgallate", "values": [{"measurement": "keratinocyte cell number relative to control", "setting": "70 μg/ml bismuth subgallate, twelfth day", "result": "up to two times of that of control"}, {"measurement": "effect on proliferation of keratinocyte", "result": "significant increase in the proliferation of keratinocyte"}]}]}
